Results reported in patent US5066794A, “Process for preparing a disaccharide derivative” (Daiichi Pharmaceutical Co., Ltd., priority 1990, dated 1991).

Key:
[1] = tested on: murine lymphocytes (splenocytes); experiment: Mitogenicity: stimulation of [^3 H]-labeled thymidine uptake into isolated murine lymphocytes (splenocytes); assay type: cell-based, BALB/c nu/nu mice; conditions: Mus musculus, Splenocyte, 48 hours, 37° C., read-out: Stimulation Index ± S.E. of mitogenicity ([^3 H]-labeled thymidine uptake; T/C)
Description: Spleen of BALB/c nu/nu mice (male; 8-week old) was minced, and lymphocytes collected from the minced spleen were incubated with graded doses of test compounds in RPMI 1640 medium without fetal bovine serum at 37° C. at a concentration of 1×10^5 to 1×10^6 lymphocytes per ml for 48 hours. Twenty-four hours before the completion of the incubation, [^3 H]-labeled thymidine (manufactured by New England Nuclear) was added to the culture. After the completion of the incubation, cells were collected on glass microfiber paper and dried, and the radioactivity of [^3 H]-labeled thymidine incorporated into the cells was measured. The ratio of thymidine uptake in the test culture to which the test compound had been added to that in the respective control culture was determined as a stimulation index. The higher the stimulation index, the higher the mitogenicity.

Japanese white rabbits = experiment: Test I: local Shwartzman reaction induction activity; assay type: in vivo; conditions: 100 μg S. minnesota LPS i.v. 20 hours later
Description: The local Shwartzman reaction test (Test I) is examined to determine the phenomenon of necrosis, at the site where a test compound was injected, induced by intravenous injection of lipopolysaccharide (hereinafter referred to as LPS) after 20 hours from intracutaneous injection of the test compound to test animals, preferably in rabbits.
The test on Shwartzman reaction specific to endotoxin was carried out as follows using Japanese white rabbits (female, weighing around 3 kg). That is, Japanese domestic white rabbits were intracutaneously injected with the test compound. Twenty hours later, 100 μg of LPS extracted from Salmonella minnesota R595, Re-mutant was intravenously injected to each rabbit. The Shwartzman reaction-induction activity was expressed in terms of number of animals that suffered from hemorrhagic necrosis at the site that had been prepared by intracutaneous injection of the test compound.

[2] = tested on: Japanese domestic white rabbits; experiment: Test II: pyrogenicity test (body temperature increase in rabbits); conditions: 0.1 μg/kg intravenous; febrile = temperature increase of 0.6° C. or more
Description: The pyrogenicity of the compounds of this invention was determined in terms of body temperature increase in rabbits after intravenous injection of the test compound in accordance with the test method of pyrogenicity defined in Japanese Pharmacopoeia. That is, the rectal temperatures of Japanese domestic white rabbits (body weight: 2 to 2.5 kg) were measured 3 times at one-hour intervals. When the temperature in the second and third measurements were substantially equal, the third temperature was taken as a reference temperature. Within 15 minutes after the third measurement, the test compound dissolved in pyrogen-free distilled water was injected in the ear vein, and the rectal temperature was measured 3 times at one-hour intervals after injection. A difference between the reference temperature and the maximum temperature was taken as an increase of body temperature, and the pyrogenicity of the test compound was expressed by the number of febrile animals showing a temperature increase of 0.6° C. or more.

Compound | fold induction at 0.01 µg/mL ([1]; 0.01 μg/ml) | fold induction at 0.1 µg/mL ([1]; 0.1 μg/ml) | fold induction at 1 µg/mL ([1]; 1 μg/ml) | Shwartzman reaction-induction activity: Number of Necrosed Animals/Number of Tested Animals (Japanese white rabbits; 20 μg/site intracutaneous) | Pyrogenicity: Number of Febrile Animals/Number of Tested Animals [2] | Shwartzman reaction-induction activity: Number of Necrosed Animals/Number of Tested Animals (Japanese white rabbits; 80 μg/site intracutaneous)
CCCCCCCCCCCCCC(=O)O[C@H](CCCCCCCCCCC)CC(=O)O[C@@H]1[C@@H](NC(=O)C[C@@H](CCCCCCCCCCC)OC(=O)CCCCCCCCCCC)[C@H](OC[C@H]2O[C@H](OP(=O)(O)O)[C@H](NC(=O)C[C@H](O)CCCCCCCCCCC)[C@@H](OC(=O)C[C@H](O)CCCCCCCCCCC)[C@@H]2O)O[C@H](CO)[C@H]1OP(=O)(O)O [Compound of Present Invention, 6-O-{2-Deoxy-2-[(R)-3-dodecanoyloxytetradecanoylamino]-3-O-[(R)-3-tetradecanoyloxytetradecanoyl]-4-O-phosphono-β-D-glucopyranosyl}-2-deoxy-2-[(R)-3-hydroxytetradecanoylamino]-3-O-[(R)-3-hydroxytetradecanoyl]-1-O-phosphono-α-D-glucopyranose] | 4.06 ± 0.35 | 9.05 ± 0.7 | 11.8 ± 0.13 | 2/3 | 3/4 | 
CCCCCCCCCCC[C@@H](O)CC(=O)N[C@H]1[C@H](OC[C@H]2O[C@H](OP(=O)(O)O)[C@H](NC(=O)C[C@H](O)CCCCCCCCCCC)[C@@H](OC(=O)C[C@H](O)CCCCCCCCCCC)[C@@H]2O)O[C@H](CO)[C@@H](OP(=O)(O)O)[C@@H]1OC(=O)C[C@H](O)CCCCCCCCCCC [Control Compound 1, 6-O-{2-Deoxy-2-[(R)-3-hydroxytetradecanoylamino]-3-O-[(R)-3-hydroxytetradecanoyl]-4-O-phosphono-β -D-glucopyranosyl}-2-deoxy-2-[(R)-3-hydroxytetradecanoylamino]-3-O-[(R)-3-hydroxytetradecanoyl]-1-O-phosphono-α-D-glucopyranose, reference compound] |  |  |  |  | 0/3 | 0/3
